The text below walks through data of patent publication US8440643B2, “Inhibitors of beta-lactamase” (MethylGene Inc., priority 2006, dated 2013).

In general, MIC refers to the smallest concentration in the dilution series that meets the test's criterion for growth inhibition.

This assay concerns Ps. aeruginosa, CL 5701. Kind of assay: Imipenem MIC against Ps. aeruginosa CL 5701. It counts as cell-based. The conditions noted are these: Pseudomonas aeruginosa, CL5701, imipenem alone. From the text:
The assay determines the concentration of a β-lactamase inhibitor required to reduce the MIC of a β-lactam antibiotic by one-half, one-quarter, one-eighth, one-sixteenth and one-thirty-second against strains of bacteria normally resistant to the antibiotic in question. This is accomplished by titrating the inhibitor (BLI=beta-lactamase inhibitor) in a serial dilution across a microtiter plate while at the same time titrating the antibiotic (AB) in a serial dilution down the microtiter plate and then inoculating the plate with the bacterial strain in question and allowing the bacteria to grow up overnight. Each well in this microplate checkerboard contains a different combination of concentrations of the inhibitor and the antibiotic allowing a full determination of any synergy between the two.
• 1. All wells in rows B-H of MIC 2000 microtiter plates are filled with 100 μL of MHBII+1% DMSO (dimethyl sulfoxide). • 2. All wells in row A of MIC 2000 microtiter plates are filled with 100 μL of 2×MHBII+2% DMSO. • 3. […] Plates are left at 37° C. for about 20 hours and scored for growth by eye. […]
Plates are scored for growth in each well. End points (MICs) where there is no growth in each row are determined and the concentrations of AB and the test BLI at each of these growth negative wells are then used to determine levels of synergy. […]

Take `C[C@@H](O)[C@H]1C(=O)N2C(C(=O)O)=C(SCCN=CN)C[C@H]12` [Imipenem]: the MIC came out at 20 µg/mL.
